These compounds were tested against Estrogen receptor (Homo sapiens, UniProt Q92731+P03372) (assay: Binding affinity towards estrogen receptor was determined).
Type: protein assay

SMILES	Ki
CC(C)CCNCCc1ccc2ccc(CCNCCC(C)C)cc2c1	> 1000 µM
CC(C)CNC(=O)[C@]1(C)C[C@](C)(C(=O)NCC(C)C)C[C@](C)(C(=O)NCC(C)C)C1	> 1000 µM
CC(C)CNc1nc(NCC(C)C)nc(NCC(C)C)n1	590 µM
CCCNc1nc(NCCC)nc(NCCC)n1	290 µM
c1ccc2cc(CNc3nc(NCc4ccc5ccccc5c4)nc(NCc4ccc5ccccc5c4)n3)ccc2c1	290 µM
CC(C)CCc1nc(NCC(C)C)nc(N(CC(=O)O)CC(C)C)n1	790 µM
CC(C)CCc1nc(NCC(C)C)nc(N(CC(=O)O)C(C)C)n1	410 µM
CCCCCCCNc1nc(NCCCCCCC)nc(NCCCCCCC)n1	290 µM
CC(C)CCc1nc(NCC(C)C)nc(NCC(C)C)n1	650 µM
CC(C)CC[C@H]1S[C@@H](CCC(C)C)S[C@@H](CCC(C)C)S1	> 1000 µM
CCC(C)CNCCc1ccc2ccc(CCNCC(C)CC)cc2c1 (stereo not drawn)	> 1000 µM
c1ccc(CCc2cc(NCc3ccccc3)nc(NCc3ccccc3)n2)cc1	49 µM
c1ccc(CNc2nc(NCc3ccccc3)nc(NCc3ccccc3)n2)cc1	240 µM
